Numbers after ± are expanded uncertainties.

The conditions of this data set: 100 kPa, Liquid, capillary rise.

`CCCCCCCO` [heptan-1-ol] + O: the interfacial tension by setting is: (302.15 K) 7.28 ± 0.08 mN/m; (313.15 K) 7.47 ± 0.08 mN/m; (323.15 K) 7.61 ± 0.08 mN/m; (333.15 K) 7.64 ± 0.08 mN/m; (343.15 K) 7.59 ± 0.08 mN/m.
Take `CCCCCCC` [heptane] + O: the interfacial tension was found to be 50.6 ± 0.6 mN/m (298.15 K); 50.1 ± 0.6 mN/m (304.15 K); 49.3 ± 0.6 mN/m (314.15 K); 48.4 ± 0.4 mN/m (324.65 K); 47.4 ± 0.4 mN/m (335.65 K).
Turning to `CCCCCC` [hexane] + O, the interfacial tension runs as follows: (298.15 K) 50 ± 0.6 mN/m; (302.15 K) 49.7 ± 0.6 mN/m; (315.65 K) 48.5 ± 0.6 mN/m; (322.15 K) 47.9 ± 0.6 mN/m; (333.15 K) 47 ± 0.4 mN/m; (343.15 K) 46.2 ± 0.4 mN/m.
`CCCCCC(=O)O` [hexanoic acid] + O: the interfacial tension is 5.57 ± 0.09 mN/m (304.65 K); 5.19 ± 0.08 mN/m (313.65 K); 4.62 ± 0.08 mN/m (324.15 K); 4.11 ± 0.09 mN/m (333.15 K); 3.48 ± 0.08 mN/m (343.15 K).
Consider `CCCCCCCCC` [nonane] + O, for which the interfacial tension (303.15 K) stood at 50.9 ± 0.6 mN/m; the interfacial tension (313.15 K) came to 50 ± 0.6 mN/m; the interfacial tension (324.15 K) came out at 49.2 ± 0.6 mN/m; the interfacial tension (333.65 K) came to 48.4 ± 0.4 mN/m; the interfacial tension (343.15 K) stood at 47.6 ± 0.4 mN/m.
As for `CCCCCCCC` [octane] + O, the interfacial tension by setting is: (312.65 K) 50.5 ± 0.6 mN/m; (323.65 K) 49.7 ± 0.6 mN/m; (330.65 K) 48.8 ± 0.6 mN/m; (333.15 K) 48 ± 0.4 mN/m; (343.15 K) 47.1 ± 0.4 mN/m.
